Assay results published in ChEMBL document CHEMBL4321809, “Structure-Reactivity Relationships on Substrates and Inhibitors of the Lysine Deacylase Sirtuin 2 from Schistosoma mansoni (SmSirt2)” (J Med Chem, 2019).
The source made the active and inactive calls. The rule behind the calls is not given here.

What was measured:
[1] = biological target: T1, NAD-dependent protein deacetylase (Schistosoma mansoni) (UniProt T1VXA1); test: Inhibition of recombinant Schistosoma mansoni sirtuin 2 (21 to 322 residues) expressed in Escherichia coli BL21(DE3) cells at 25 uM using ZMAL as susbtrate after 1 hr in presence of NAD+ by homogeneous fluorescence based analysis relative to control
T1 sequence (whole entry): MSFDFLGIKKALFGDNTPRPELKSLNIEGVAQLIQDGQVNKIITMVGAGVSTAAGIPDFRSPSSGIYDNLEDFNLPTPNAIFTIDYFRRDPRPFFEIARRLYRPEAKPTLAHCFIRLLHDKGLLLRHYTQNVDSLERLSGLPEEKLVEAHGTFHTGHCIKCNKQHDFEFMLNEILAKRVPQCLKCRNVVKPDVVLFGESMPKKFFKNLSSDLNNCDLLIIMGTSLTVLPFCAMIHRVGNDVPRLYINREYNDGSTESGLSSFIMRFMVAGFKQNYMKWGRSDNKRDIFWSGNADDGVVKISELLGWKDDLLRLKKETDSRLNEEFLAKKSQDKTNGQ

[2] = biological target: T2, NAD-dependent protein deacetylase sirtuin-2 (Homo sapiens, UniProt Q8IXJ6); test: Inhibition of N-terminal His6 tagged human sirtuin 2 (25 to 389 residues) at 25 uM using Cbz-Lys(acetyl)-AMC as substrate after 4 hrs in presence of NAD+ by homogeneous fluorescence based analysis relative to control
T2 sequence (Q8IXJ6 whole entry): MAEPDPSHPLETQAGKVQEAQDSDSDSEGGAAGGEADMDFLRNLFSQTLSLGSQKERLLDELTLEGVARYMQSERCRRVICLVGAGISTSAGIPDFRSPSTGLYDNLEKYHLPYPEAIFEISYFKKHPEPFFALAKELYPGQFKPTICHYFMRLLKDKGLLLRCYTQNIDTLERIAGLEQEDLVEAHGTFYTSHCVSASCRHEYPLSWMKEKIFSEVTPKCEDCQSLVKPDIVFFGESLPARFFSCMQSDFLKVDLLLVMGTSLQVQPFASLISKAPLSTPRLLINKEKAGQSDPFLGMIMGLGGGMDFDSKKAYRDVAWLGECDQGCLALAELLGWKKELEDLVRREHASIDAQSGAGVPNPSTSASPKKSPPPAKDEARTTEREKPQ

HL-60 = test: Cytotoxicity against human HL60 cells at 10 uM after 72 hrs by Cell titer MTS dye based analysis; details: hl-60, 72 h
Schistosoma mansoni [3] = test: Antiparasitic activity against adult Schistosoma mansoni Puerto Rico assessed as reduction in egg laying at 10 to 20 uM after 24 hrs by microscopic analysis; format: functional, organism-based
[4] = biological target: T3, NAD-dependent protein deacetylase (Schistosoma mansoni, UniProt T1VXA1); test: Inhibition of recombinant Schistosoma mansoni sirtuin 2 (21 to 322 residues) expressed in Escherichia coli BL21(DE3) cells using ZMAL as substrate after 1 hr in presence of NAD+ by homogeneous fluorescence based analysis
T3 sequence (T1VXA1 whole entry): T1 sequence (whole entry)

Schistosoma mansoni [5] = test: Antiparasitic activity against adult Schistosoma mansoni Puerto Rico assessed as reduction in worm pairing at 10 to 20 uM after 24 hrs by microscopic analysis; format: functional, organism-based
Schistosoma mansoni [6] = test: Antiparasitic activity against Schistosoma mansoni Puerto Rico assessed as reduction in parasite viability at 10 to 20 uM after 72 hrs by microscopic analysis; format: functional, organism-based
[7] = biological target: T2, NAD-dependent protein deacetylase sirtuin-2; test: Inhibition of N-terminal His6 tagged human sirtuin 2 (25 to 389 residues) using Cbz-Lys(acetyl)-AMC as substrate after 4 hrs in presence of NAD+ by homogeneous fluorescence based analysis

Structure (SMILES)	inhibition [1] [%]	inhibition at 25 µM [2] [%]	IC50 [4] [µM]	further results
CNC(C)c1ccc(Oc2ccccc2)cc1 (centres undefined)	< 15	< 15	–	–
COc1ccc(Oc2ccc(C(c3ccccc3)N(C)c3ncc4c(N)nc(N)nc4n3)cc2)cc1 (centres undefined)	–	22.1	2.34	Imax [1]: 60%; Activity (HL-60): Non-Toxic; inhibition (Schistosoma mansoni [3]): Active; inhibition (Schistosoma mansoni [5]): Active; inhibition (Schistosoma mansoni [6]): Active
COc1ccc(Sc2ccc(C(C)N(C)c3ncc4c(N)nc(N)nc4n3)cc2)cc1 (centres undefined)	–	–	14.9	IC50 [7]: 13.3 µM
COc1ccc(Oc2ccc(C(C)N(C)c3ncc4c(N)nc(N)nc4n3)cc2)cc1OC (centres undefined)	–	35.3	44.7	–
COc1ccc(Oc2ccc(C(C)N(C)c3ncc4c(N)nc(N)nc4n3)cc2)c2ccccc12 (centres undefined)	18.4	30.6	–	–
CC(=O)Nc1ccc(-c2noc(CC3CCCN(Cc4cccc(F)c4C)C3)n2)cc1 (centres undefined)	–	–	14 to 14.5	IC50 [7]: 3.6 to 8 µM
COc1ccc(Nc2ccc(C(C)N(C)c3ncc4c(N)nc(N)nc4n3)cc2)cc1 (centres undefined)	–	40.8	65.1	–
COc1ccc(Oc2ccc(C(C(C)C)N(C)c3ncc4c(N)nc(N)nc4n3)cc2)cc1 (centres undefined)	–	57.4	27.7	–
CC(c1ccc(Oc2ccc(OC(F)(F)F)cc2)cc1)N(C)c1ncc2c(N)nc(N)nc2n1 (centres undefined)	20.3	37.5	–	–
CCCCCCCC(=O)Nc1ccc(-c2noc(CC3CCCN(Cc4cccc(F)c4C)C3)n2)cc1 (centres undefined)	30.5	< 15	–	–
COc1cccc(Oc2ccc(C(C)N(C)c3ncc4c(N)nc(N)nc4n3)cc2)c1 (centres undefined)	–	33.8	23.1	–
COc1ccc(Oc2ccc(CN(C)c3ncc(C#N)c(N)n3)cc2)cc1	< 15	< 15	–	–
CCC(c1ccc(Oc2ccc(OC)cc2)cc1)N(C)c1ncc2c(N)nc(N)nc2n1 (centres undefined)	–	–	12.8	IC50 [7]: 36.7 µM
CCCCCCCCCC(=O)Nc1ccc(-c2noc(CC3CCCN(Cc4cccc(F)c4C)C3)n2)cc1 (centres undefined)	< 15	< 15	–	–
COc1ccc(Oc2ccc(C(C)Nc3ncc4c(N)nc(N)nc4n3)cc2)cc1 (centres undefined)	37.5	21	–	–
COc1cc(Oc2ccc(C(C)N(C)c3ncc4c(N)nc(N)nc4n3)cc2)cc(OC)c1OC (centres undefined)	–	29.2	30.8	–
COc1cc(OC)cc(Oc2ccc(C(C)N(C)c3ncc4c(N)nc(N)nc4n3)cc2)c1 (centres undefined)	–	7.4	12.5	Activity (HL-60): Non-Toxic; inhibition (Schistosoma mansoni [3]): Active; inhibition (Schistosoma mansoni [5]): Active; inhibition (Schistosoma mansoni [6]): Active

Continued, in another order:

inhibition [1] [%]	inhibition at 25 µM [2] [%]	IC50 [4] [µM]	Structure (SMILES)	further results
< 15	< 15	–	COc1ccc(CNc2ncc3c(N)nc(N)nc3n2)cc1	–
< 15	< 15	–	CC1CCCCN1c1ncc2c(N)nc(N)nc2n1 (centres undefined)	–
24.8	< 15	–	CC(c1ccc(-c2ccccc2)cc1)N(C)c1ncc2c(N)nc(N)nc2n1 (centres undefined)	–
40.3	70.4	–	CC(c1ccc(Oc2ccc(OCc3ccccc3)cc2)cc1)N(C)c1ncc2c(N)nc(N)nc2n1 (centres undefined)	–
< 15	< 15	–	COc1ccc(C(C)N(C)c2ncc3c(N)nc(N)nc3n2)cc1 (centres undefined)	–
< 15	< 15	–	Nc1nc(N)c2cnc(N3CCN(c4ccccc4)CC3)nc2n1	–
< 15	< 15	–	Nc1ncc2c(N)nc(N)nc2n1	–
< 15	< 15	–	Nc1nc(N)c2cnc(N3CCc4ccccc4C3)nc2n1	–
< 15	23.2	–	Nc1nc(N)c2cnc(NC3CCN(Cc4ccccc4)CC3)nc2n1	–
< 15	< 15	–	CC(c1ccccc1)N(C)c1ncc2c(N)nc(N)nc2n1 (centres undefined)	–
< 15	< 15	–	CC(Nc1ncc2c(N)nc(N)nc2n1)c1ccccc1 (centres undefined)	–
< 15	< 15	–	CN(Cc1ccccc1)c1ncc2c(N)nc(N)nc2n1	–
27.6	< 15	–	CC(c1ccc(Oc2ccccc2)cc1)N(C)c1ncc2c(N)nc(N)nc2n1 (centres undefined)	–
